Two compounds from patent US20190134047A1, “A MIXTURE OF D-SERINE AND CAFFEINE FOR OBTAINING THE EFFECT OF PREVENTING THE DECLINE OF LEARNING ABILITY OR MEMORY CAUSED BY STRESS AND ENHANCING LEARNING ABILITY OR MEMORY, AND A FUNCTIONAL FOOD COMPOSITION CONTAINING THE SAME” (ADVANCED NT, priority 2016, published 2019) can be followed below.

Structures are written as SMILES.

This test deals with C57BL/6 male mouse. The test can be described thus: Novel object recognition test with restraint stress. The test is classed as in vivo. As to conditions: for preference for objects A and B on the fourth day (training day): abdominal injection 30 min before; for preference for objects A and B on the fourth day (training day) / preference for new object C on the fifth day after 24 hours: + restraint stress, mean±standard error; for preference for new object C on the fifth day after 24 hours: abdominal injection. How it is done: In all experiments, C57BL/6 male mouse, a kind of B6 mouse of 8-12 weeks old, were used. The experimental groups were divided into 7 experimental groups according to whether they were stressed or not and the type and weight of injected drugs as follows. […] Immediately after each behavioral experiment, restraint stress was applied by placing the mouse in a 50 mL tube pre-pierced with about 9 pores for 90 minutes. A mouse was placed in an open-field box (40 cm×40 cm×40 cm) made of acryl for 15 minutes every day for 3 days to fit and stabilize to the box. On the training day of the fourth day, two different objects made of acryl (objects A and B) were placed at regular intervals in the box and the mice were trained to freely search objects A and B for 10 minutes. […] The search time for each object (A and C or B and C) was quantified and the preference for the object was expressed as a ratio of search time (Preference (%)=C/(A+C)*100). […] To compare the results of the said two behavioral experiments, SPSS 21.0 (SPSS Inc, Chicago, Ill.) and Student's T-test and one-way ANOVA were used for statistical analysis.

Setting [1] is: D-serine 500 mg (second weight).

On to `Cn1c(=O)c2c(ncn2C)n(C)c1=O` [caffeine], for which, where the note is “Caffeine 10 mg”, the “preference for objects A and B on the fourth day (training day)” value (from here on “preference for objects A and B”) is on record as 49.92±2.75%; the “preference for new object C on the fifth day after 24 hours” value (“preference … after 24 hours” for short) is reported as 62.06±2.27%.

Consider `N[C@H](CO)C(=O)O` [D-serine], for which, under “D-Serine 50 mg + restraint stress as printed, 24-hour results, one-way ANOVA”, the “preference for new object C, comparison among drug groups” value is reported as “highest preference”. Moreover, for the setting “D-serine 50 mg (first weight)”, the “preference for objects A and B” value was determined as 52.12±2.81%; the “preference … after 24 hours” value came to 63.63±3.94%. Further, under setting [1], the “preference for objects A and B” value was determined as 47.83±3.97%; the “preference … after 24 hours” value was 67.55±3.46%.
